This note sets out measurements from PMC5620277, “The histone methyltransferase EZH2 as a druggable target in SHH medulloblastoma cancer stem cells” (Oncotarget, 2017).

Data set [1] has as its system DAOY cells. The experiment in a line: Western Blot of H3K27me3 and PCNA in DAOY cells. The note with it: 5 μM, 48 h. The class given is cell-based. How it is done: (§1) To evaluate cell viability cells were plated at a density of 5×10^3 cells/well in 96-well plates and were incubated with MTS solution (CellTiter 96® AQueous One Solution Promega).
(§2) Western blots were performed according to standard procedures. Briefly, protein lysates were prepared using RIPA buffer with fresh protease inhibitors. Lysates were separated on SDS polyacrylamide gels. Proteins were transferred on nitrocellulose membrane (0.45 micron) (PerkinElmer). Membranes were blocked for 1 h at room temperature in 5% nonfat dry milk and incubated overnight at 4°C with antibodies against EZH2 (4905S Cell signaling), H3K27me3 (07-449 Millipore), PCNA (2586 Cell signaling), ACTIN (I-19 sc-1616; Santa Cruz Biotechnology), GAPDH (ab9484, Abcam), cleaved CSP-3 (D-175 9661S; Cell Signaling) and H3 (ab1971, Abcam). HRP-conjugated secondary antibodies (Santa Cruz Biotechnology) were used in combination with enhanced chemiluminescence (ECL Amersham).
Background: In western blotting, separated proteins are transferred to a membrane and probed.

For data set [2], the system named is DAOY-SLCs. Kind of data set: Western Blot of H3K27me3 and PCNA in DAOY-SLCs. Format: cell-based. As to conditions: 5 μM, 48 h. How it is done:
as §1, §2

Data set [3] relates to DAOY-SLCs. The experiment in a line: Cell viability, MTS assay, DAOY-SLCs. The class given is cell-based. As to conditions: 5 μM, after 72 h. How it is done: as §1
In general terms: Formazan colour is commonly taken as a measure of viable cells.

A short description of data set [4]: PAMPA-BBB (porcine brain lipid extract artificial membrane). The class given is in vitro ADME. As to conditions: for Papp at 24 h: Pe in cm/s, pH 7.4, 24 h, room temperature, triplicate, read-out: Log Pe (converted). As to the method:
Donor solution (500 μM or 250 μM) was prepared by diluting 10 or 5 mM DMSO compound stock solution using phosphate buffer (pH 7.4, 0.01 M). Filter membrane was coated with 5 μl of BBB-specific lipid solution prepared dissolving 16 mg of PBL (Avanti Lipids Polar, 141101P) in 600 μl of n-dodecane. Donor solution (150 μl) was added to each well of the filter plate. To each well of the acceptor plate 300 μl of solution (5% DMSO in phosphate buffer) were added. Each compound was tested in triplicate. The sandwich was incubated for 24 h at room temperature under gentle shaking. After the incubation time, the sandwich plates were separated and 250 μl of the acceptor plate were transferred to a UV quartz microtiter plate and measured by UV spectroscopy, using a Multiskan GO microplate spectrophotometer (Thermo Scientific) at 250−500 nm at step of 5 nm. Reference solutions (250 μl) were prepared diluting the sample stock solutions to the same concentration as that with no membrane barrier. The BBB permeability value Log Pe is determined applying the equation:
log Pe= log{C⋅(−ln(1−[drug]acceptor/[drug]equilibrium))},
where C=(VD⋅VA/(VD+VA)area⋅time)
In this equation, VA is the volume of the acceptor compartment (0.3 cm^3), VD is the donor volume (0.15 cm^3), area is the accessible filter area (0.24 cm^2), and time is the incubation time in seconds.
(PAMPA measures passive passage across an artificial lipid membrane.)

In data set [5] the test system is mMB-SLCs. The experiment in a line: Western Blot of H3K27me3, PCNA, cleaved caspase 3 in mMB-SLCs. Format: cell-based, mouse. The note with it: mMB-SLCs, 5 μM, 48 h. How it is done:
Afterwards, we tested the ability of MC3629 (at 0.5, 5, and 25 μM) to inhibit the EZH2 enzymatic activity on a cell-based assay in vitro. The lower significant MC3629 dosage to decrease the H3K27me3 level in MB-SLCs was 5 μM (Figure 2C).
as §1, §2

Data set [6] has as its system hMB-SLCs. Kind of data set: Western Blot of H3K27me3, PCNA, cleaved caspase 3 in hMB-SLCs. Format: cell-based, human. The note with it: 5 μM, 48 h. How it is done:
as §1, §2

The test system of data set [7] is mMB-SLCs. The experiment in a line: Self-renewal, clonogenic assay, mMB-SLCs. The class given is cell-based, mouse. The note with it: 5 μM. How it is done:
(§3) For self-renewal assessment, clonogenic assay was performed as previously described. Briefly: oncospheres were disaggregated with non-enzymatic cell dissociation buffer (Sigma) and cells were plated at clonal density (1-2 cells/mm^2) into 96-well plates and cultured for an appropriate number of days (7-15) until oncospheres were countable.

Data set [8] concerns hMB-SLCs. The experiment in a line: Self-renewal, clonogenic assay, hMB-SLCs. The class given is cell-based, human. The note with it: 5 μM. How it is done:
as §3

As to `CC[C@H](C)n1cc(C)c2c(C(=O)NCc3c(C)cc(C)[nH]c3=O)cc(-c3ccc(N4CCNCC4)nc3)cc21` [GSK2816126, reference compound], the “H3K27me3 and PCNA levels” value in data set [1] is reported as “impaired only by MC3629”; in data set [2], “down modulated”. The cell viability entry in data set [3] is on record as “significantly impair”. Further, in data set [4], the Papp at 24 h was 3.89 ×10⁻⁶ cm/s. In addition, in data set [4] (respect to propranolol), the “Δ Log Pe” value is recorded as −0.20. In addition, the “H3K27me3 and PCNA protein levels” value in data set [5] and in data set [6] was “significantly impaired” in each case. Besides, the self-renewal result in data set [7] and in data set [8] was “significantly reduced” each time.
Regarding `CC(C)NCC(O)COc1cccc2ccccc12` (stereo not shown) [propranolol], the Papp at 24 h in data set [4] was 6.17 ×10⁻⁶ cm/s.
